One experiment deals with T1, PTPN13 PDZ 4 (Homo sapiens, UniProt Q12923).
T1 construct: made in house; host or cells: E. coli
T1 sequence (Q12923 1788-1868 limits assumed): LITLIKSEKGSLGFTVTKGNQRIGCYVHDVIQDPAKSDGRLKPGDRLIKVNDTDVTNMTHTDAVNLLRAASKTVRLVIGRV
The experiment is described as follows: Holdup assay, PTPN13-4. The experiment is classed as binding. The note with it: for BI: PDZ domain PTPN13-4. How it is done: The holdup assay was performed on a Tecan freedom Evo200 robot with 384-well plates in singlicate for the three 11-mer PTEN variants and the 13-mer PTEN peptide as described in [31, 32]. Briefly, prior to interaction assay, 2.5 μL of streptavidin resin was saturated in each well with 20 μL of biotinylated PBM peptides (42 μM) and then washed twice with an excess of free biotin, while the reference resin was incubated only with biotin. Right before the holdup experiment, the PDZ library was spiked with an internal standard of lysozyme. Then, the biotin- or PBM-saturated resin was incubated, each in a distinct well of a 384-well plate, with complete cell lysates diluted so that the concentration of the tag-PDZ present in the crude extract is adjusted at 4 μM. After a sufficient time to reach complex equilibrium (15 min.), a fast and mild filtration step is performed and the tag-PDZ concentrations were measured by capillary electrophoresis instrument (LabChip GXII, PerkinElmer, Massachusets, USA). Standard markers were used to convert migration time into molecular weight on the LabChip software and inappropriate molecular weight markers were corrected or excluded.
For filtered data, the BI was extracted with the following equation (Eq 1) that estimates the depleted fraction after superimposition of the sample and reference electropherograms: BI=Iref−Ilig/Iref (1) where Iref and Ilig are the intensities of the tag-PDZ peaks measured, for each PDZ domain/PBM peptide interaction pair, in the biotin reference and the PBM electropherograms, respectively.
BIs were transformed into dissociation constants (KD) using the following formula: KD=([PDZtot]−BI·[PDZtot])·([PBMtot]−BI·[PDZtot])/BI·[PDZtot] (2) where [PDZtot] and [PBMtot] correspond to the total concentrations of the PDZ domain (usually around 4 μM) and the PBM peptide used during the assay. Since the PBMtot concentration in the resin during the holdup assay parameter may differ from one peptide to another and remains unknown, it is impossible to directly convert BI values into KD constants. We systematically determined the KD constants for a subset of PDZ/PBM pairs by competitive FP. […] For each PBM, the average peptide concentration was calculated after outlier rejection based on the absolute distances from the median as compared to three times the standard deviation (3σ rule), with never more than 2 values rejected.

The next experiment has as its system AHNAK1-1. The experiment is described as follows: Holdup assay, AHNAK1-1. The experiment is classed as binding, human.
The next experiment concerns APBA1-1. The experiment is described as follows: Holdup assay, APBA1-1. Type of experiment: binding, human.
The target of the next experiment is APBA1-2 (Homo sapiens, UniProt Q02410). The experiment in a line: Holdup assay, APBA1-2. Type of experiment: binding.
A further experiment has as its target T2, CNKSR1-1 (Homo sapiens, UniProt Q969H4).
T2 sequence (Q969H4 1-720): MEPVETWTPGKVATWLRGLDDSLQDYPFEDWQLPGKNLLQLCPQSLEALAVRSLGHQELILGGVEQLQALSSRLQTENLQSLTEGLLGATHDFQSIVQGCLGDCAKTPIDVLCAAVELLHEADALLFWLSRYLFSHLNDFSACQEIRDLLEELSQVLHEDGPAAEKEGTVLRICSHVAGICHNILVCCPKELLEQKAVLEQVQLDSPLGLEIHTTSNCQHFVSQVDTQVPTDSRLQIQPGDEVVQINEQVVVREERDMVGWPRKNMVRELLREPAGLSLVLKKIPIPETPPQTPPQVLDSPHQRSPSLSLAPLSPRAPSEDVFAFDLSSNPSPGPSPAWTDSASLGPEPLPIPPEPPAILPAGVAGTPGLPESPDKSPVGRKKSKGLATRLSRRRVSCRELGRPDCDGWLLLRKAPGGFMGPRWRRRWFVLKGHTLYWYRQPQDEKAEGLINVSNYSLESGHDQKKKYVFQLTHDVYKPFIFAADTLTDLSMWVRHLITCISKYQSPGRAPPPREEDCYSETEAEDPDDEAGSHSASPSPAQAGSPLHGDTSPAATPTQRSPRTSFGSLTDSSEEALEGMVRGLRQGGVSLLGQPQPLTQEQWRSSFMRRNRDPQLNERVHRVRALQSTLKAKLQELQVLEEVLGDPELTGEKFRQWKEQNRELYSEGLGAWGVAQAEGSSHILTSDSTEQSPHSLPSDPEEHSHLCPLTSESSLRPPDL
The experiment in a line: Holdup assay, CNKSR1-1. The experiment is classed as binding.

Another experiment concerns CNKSR2-1. The experiment in a line: Holdup assay, CNKSR2-1. The experiment is classed as binding, human.
The next experiment concerns DLG2-3. The experiment is described as follows: Holdup assay, DLG2-3. The experiment is classed as binding, human.
Another experiment relates to GIPC3-1. The experiment in a line: Holdup assay, GIPC3-1. Type of experiment: binding, human.
The next experiment concerns the target GRID2IP-2 (Homo sapiens, UniProt A4D2P6). The experiment in a line: Holdup assay, GRID2IP-2. Type of experiment: binding.
In a further experiment the test system is GRIP2-2. The experiment is described as follows: Holdup assay, GRIP2-2. Type of experiment: binding, human.
The next experiment has as its system LNX1-1. The experiment is described as follows: Holdup assay, LNX1-1. The experiment is classed as binding, human.
Another experiment deals with LNX1-4 (Homo sapiens, UniProt Q8TBB1). The experiment in a line: Holdup assay, LNX1-4. The experiment is classed as binding.
The subject of the next experiment is MAGI1-4. The experiment is described as follows: Holdup assay, MAGI1-4. Type of experiment: binding, human.
The target of another experiment is T3, SCRIB-3 (Homo sapiens, UniProt Q14160).
T3 construct: Representative holdup data recorded for three PDZ domains (MAST2-1, HTRA1-1, SCRIB-3); made in house; host or cells: E. coli
T3 sequence (Q14160 1004-1093 limits assumed): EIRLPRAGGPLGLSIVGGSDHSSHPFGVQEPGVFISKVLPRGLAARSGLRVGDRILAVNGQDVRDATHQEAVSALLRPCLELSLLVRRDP
The experiment is described as follows: Competitive FP, SCRIB-3. The note with it: SCRIB-3 + 50 nM f16E6. The experiment is classed as binding. How it is done:
Protein concentrations were determined by far-UV absorption spectroscopy. A detailed protocol has been published previously.

In a further experiment the test system is LMO7-1. The experiment is described as follows: Holdup assay, LMO7-1. The experiment is classed as binding, human.

The structures appear in SMILES notation. *1 amine or outer side, *2 acyl side, *3 side chain or, on linkers, in order; H or OH if unused. Where a SMILES comes first, the peptide text is derived from it. The star is where a group is joined. X1 = O=C(CCCC[C@@H]1SC[C@@H]2NC(=O)N[C@@H]21)NCCCOCCOCCOCCCN*; Suc = O=C(CCC(=O)[*:2])[*:1]

Chain of GRID2IP-2 (A4D2P6 whole entry): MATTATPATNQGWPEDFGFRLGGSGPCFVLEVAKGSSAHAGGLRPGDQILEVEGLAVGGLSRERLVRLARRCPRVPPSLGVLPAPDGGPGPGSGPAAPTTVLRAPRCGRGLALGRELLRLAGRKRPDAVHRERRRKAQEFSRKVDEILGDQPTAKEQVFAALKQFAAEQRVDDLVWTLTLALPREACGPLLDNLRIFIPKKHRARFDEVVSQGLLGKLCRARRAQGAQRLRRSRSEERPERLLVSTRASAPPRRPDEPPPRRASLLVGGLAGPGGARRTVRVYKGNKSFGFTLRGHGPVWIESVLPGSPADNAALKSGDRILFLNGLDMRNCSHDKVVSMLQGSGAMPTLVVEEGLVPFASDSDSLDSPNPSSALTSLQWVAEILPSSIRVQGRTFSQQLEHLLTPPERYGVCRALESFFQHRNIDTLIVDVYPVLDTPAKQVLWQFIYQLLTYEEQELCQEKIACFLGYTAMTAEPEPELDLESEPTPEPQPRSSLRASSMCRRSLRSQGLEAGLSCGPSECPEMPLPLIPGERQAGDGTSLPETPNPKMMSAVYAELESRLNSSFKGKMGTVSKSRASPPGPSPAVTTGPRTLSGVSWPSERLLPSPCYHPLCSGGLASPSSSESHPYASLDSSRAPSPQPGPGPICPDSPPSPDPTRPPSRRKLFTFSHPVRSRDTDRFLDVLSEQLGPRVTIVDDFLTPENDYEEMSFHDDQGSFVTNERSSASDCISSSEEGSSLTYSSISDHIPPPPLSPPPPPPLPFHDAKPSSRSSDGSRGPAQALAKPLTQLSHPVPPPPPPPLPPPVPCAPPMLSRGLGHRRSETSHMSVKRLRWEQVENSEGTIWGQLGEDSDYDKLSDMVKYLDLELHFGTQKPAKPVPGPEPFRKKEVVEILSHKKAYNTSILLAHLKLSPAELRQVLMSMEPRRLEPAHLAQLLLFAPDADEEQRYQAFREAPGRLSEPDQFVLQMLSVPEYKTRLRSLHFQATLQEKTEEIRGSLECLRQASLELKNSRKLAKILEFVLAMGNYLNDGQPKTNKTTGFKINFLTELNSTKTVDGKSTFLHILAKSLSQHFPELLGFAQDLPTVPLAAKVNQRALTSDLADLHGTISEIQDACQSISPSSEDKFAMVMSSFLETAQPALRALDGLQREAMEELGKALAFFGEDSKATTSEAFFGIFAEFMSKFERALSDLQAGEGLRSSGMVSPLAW
Chain of LNX1-4 (Q8TBB1 638-723): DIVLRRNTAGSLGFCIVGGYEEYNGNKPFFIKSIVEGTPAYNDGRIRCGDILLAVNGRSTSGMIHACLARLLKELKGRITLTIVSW
Chain of APBA1-2 (Q02410 747-822): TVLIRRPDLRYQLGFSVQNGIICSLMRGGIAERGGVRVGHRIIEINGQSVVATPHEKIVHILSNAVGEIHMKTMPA

The Kd is a measure of binding affinity in units of concentration. Lower therefore signals tighter binding. Turning to `CC[C@H](C)[C@H](NC(=O)[C@H](CCC(N)=O)NC(=O)[C@@H](NC(=O)[C@H](Cc1c[nH]cn1)NC(=O)[C@H](CCC(N)=O)NC(=O)[C@H](CC(=O)O)NC(=O)[C@H](CCC(=O)O)NC(=O)[C@H](CC(=O)O)NC(=O)[C@H](Cc1ccccc1)NC(=O)[C@@H]1CCCN1C(=O)CCC(=O)NCCCOCCOCCOCCCNC(=O)CCCC[C@@H]1SC[C@@H]2NC(=O)N[C@@H]21)[C@@H](C)O)C(=O)N[C@H](C(=O)N[C@@H](CCCCN)C(=O)N[C@H](C(=O)O)C(C)C)[C@@H](C)O` [PTEN_13] ({X1-Suc}-PFDEDQHTQITKV-OH), the Kd at PTPN13 PDZ 4 is 35.8 µM; at LNX1-4, 25.5 µM. Besides, the BI was 0.306 at PTPN13 PDZ 4; -0.053 in the experiment with AHNAK1-1; -0.05 in the experiment with APBA1-1; 0.184 at APBA1-2; -0.076 on CNKSR1-1; -0.021 in the experiment on CNKSR2-1. Also, the BI with DLG2-3 was 0.083; with GIPC3-1 it was 0.032; at GRID2IP-2 it was -0.012; in the experiment on GRIP2-2, -0.021; in the experiment with LNX1-1 it was 0.021; at LNX1-4, 0.378. Besides, the BI in the experiment on MAGI1-4 is recorded as 0.094. Also, the LogKD at CNKSR1-1 and at GRID2IP-2 was 3.826 in each case.
Consider `CC[C@H](C)[C@H](NC(=O)[C@H](CCC(N)=O)NC(=O)[C@@H](NC(=O)[C@H](Cc1c[nH]cn1)NC(=O)[C@H](CCC(N)=O)NC(=O)[C@H](CC(=O)O)NC(=O)[C@H](CCC(=O)O)NC(=O)[C@H](CC(=O)O)NC(=O)CCC(=O)NCCCOCCOCCOCCCNC(=O)CCCC[C@@H]1SC[C@@H]2NC(=O)N[C@@H]21)[C@@H](C)O)C(=O)N[C@H](C(=O)N[C@@H](CCCCN)C(=O)N[C@H](C(=O)O)C(C)C)[C@@H](C)O` [PTEN_11], for which the “binding by holdup and competitive FP (in words)” value on SCRIB-3 is “non-binding”. In the experiment on LMO7-1, this molecule gave a BI of -0.045 and a LogKD of 3.519.
`CC[C@H](C)[C@H](NC(=O)[C@H](CCC(N)=O)NC(=O)[C@@H](NC(=O)[C@H](Cc1c[nH]cn1)NC(=O)[C@H](CCC(N)=O)NC(=O)[C@H](CC(=O)O)NC(=O)[C@H](CCC(=O)O)NC(=O)[C@H](CC(=O)O)NC(=O)CCC(=O)NCCCOCCOCCOCCCNC(=O)CCCC[C@@H]1SC[C@@H]2NC(=O)N[C@@H]21)[C@@H](C)O)C(=O)N[C@H](C(=O)N[C@@H](CCCCNC(C)=O)C(=O)N[C@H](C(=O)O)C(C)C)[C@@H](C)O` [PTEN_Ac]: at PTPN13 PDZ 4, the affinity, expressed as Kd, was 10.4 µM and the BI stood at 0.707. Moreover, at PTPN13 PDZ 4 (PTPN13-4), the “binding of PTPN13-4 (in words)” value is reported as “PTPN13-4 binds to PTEN_Ac”. In the experiment with APBA1-1, this molecule came in with a BI of -0.002 and a LogKD of 3.605. This molecule also registered a BI at CNKSR1-1 of 0.116.
